Results published in US20110269790A1, “NOVEL THIENOPYRIDINES AS PHARMACOLOGICALLY ACTIVE AGENTS” (priority 2009, published 2011).
≈ marks a conversion by molar mass, not a printed value.

Each compound was assayed on A549 (Lung cancer) (assay: MTT assay, A549). Conditions: Homo sapiens, A549; MTT, 48 hrs; read-out: A549 IC50.
Type: cell-based
Procedure: (§1) A431 (Skin cancer), Colo-205 (Colon cancer), A549 (Lung cancer) cell lines were obtained from National Center for Cell science (NCCS), Pune, India. DMEM (Dulbeccos Modified Eagles Medium), MTT [3-(4,5-dimethylthiazol-2-yl)-2,5-diphenyl tetrazolium bromide], Trypsin, EDTA were purchased from Sigma Chemicals Co (St. Louis, Mo.), Fetal bovine serum were purchased from Arrow labs, 96 well flat bottom tissue culture plates were purchased from Tarson.
(§2) A431, Colo-205, A549 cell lines were grown as adherent cells in DMEM media supplemented with 10% fetal bovine serum, 100 μg/ml penicillin, 200 μg/ml streptomycin, 2 mM L-glutamine, and culture was maintained in a humidified atmosphere with 5% CO2. Stock solution of 10 mg/ml was prepared for test molecules in DMSO. From the stock, various dilutions were made with sterile water to get required concentration. A431, Colo-205, A549 cell lines were seeded at a density of 1×10^4 cells (cell number was determined by Trypan blue exclusion dye method) per each well in 100 μl of DMEM supplemented with 10% FBS. 12 hrs after seeding, above media was replaced with fresh DMEM supplemented with 10% FBS. Then, 10 μl sample from above stock solutions were added to each well in triplicates which gives final concentration of 100, 50, 25, 10 μg/well. The above cells were incubated for 48 hrs at 37° C. with 5% CO2. After 48 hrs incubation the above media was replaced with 100 μl of fresh DMEM with out FBS and to this 10 μl of MTT (5 mg dissolved in 1 ml of PBS) was added and incubated for 3 hrs at 37° C. with 5% CO2. After 3 hrs of incubation, the above media was removed with multi channel pipette, then 200 μl of DMSO was added to each well and incubated at 37° C. for 15 min. Finally, the plate was read at 570 nm using spectrophotometer (Spectra Max, Molecular devices).

Structure (SMILES) | IC50
Nc1c2c(nc3sc4c(c13)CCCC4)CCCC2 [BN-6, 1,2,3,4,7,8,9,10-Octahydrobenzo[4,5]thieno[2,3-b]quinolin-11-amine] | 33.8 µg/mL (≈ 131 µM)
CC1CCc2c(nc3sc4c(c3c2N)CCCC4)C1 (stereo not shown) [BN-7, 8-Methyl-1,2,3,4,7,8,9,10-octahydrobenzo[4,5]thieno[2,3-b]quinolin-11-amine] | 49 µg/mL (≈ 180 µM)
Nc1c2c(nc3sc4c(c13)CCC4)CCCC2 [BN-14, 2,3,6,7,8,9-Hexahydro-1H-cyclopenta[4,5]thieno[2,3-b]quinolin-10-amine] | 79.4 µg/mL (≈ 325 µM)
CC1CCc2c(nc3sc4c(c3c2N)CCC4)C1 (stereo not shown) [BN-15, 7-Methyl-2,3,6,7,8,9-hexahydro-1H-cyclopenta[4,5]thieno[2,3-b]quinolin-10-amine] | 72.4 µg/mL (≈ 280 µM)
Nc1c2c(nc3sc4c(c13)CCC4)CCCCC2 [BN-16, 1,2,3,6,7,8,9,10-Octahydrocyclohepta[b]cyclopenta[4,5]thieno[3,2-e]pyridine-11-amine] | 39.8 µg/mL (≈ 154 µM)
Nc1c2c(nc3sc4c(c13)CCCCC4)CCC2 [BN-18, 1,2,3,6,7,8,9,10-Octahydrocyclohepta[4,5] thieno[2,3-b]cyclopenta [e]pyridin-11-amine] | 39.8 µg/mL (≈ 154 µM)

Same assay, conditions: MTT, 48 hrs

Structure (SMILES) | A549 IC50
Nc1c2c(nc3sc4c(c13)CCC4)CCCCCC2 [BN-17, 2,3,6,7,8,9,10,11-Octahydro-1H-cycloocta [b]cyclopenta[4,5]thieno[3,2-e]pyridin-12-amine] | 40.7 µg/mL

What follows are compounds tested on Colo-205 (Colon cancer) (assay: MTT assay, Colo-205). Conditions: Homo sapiens, COLO 205; MTT, 48 hrs; read-out: Colo-205 IC50.
Type: cell-based
Procedure: as §1, §2

Structure (SMILES) | IC50
Nc1c2c(nc3sc4c(c13)CCCC4)CCCC2 [BN-6, 1,2,3,4,7,8,9,10-Octahydrobenzo[4,5]thieno[2,3-b]quinolin-11-amine] | 162 µg/mL (≈ 627 µM)
CC1CCc2c(nc3sc4c(c3c2N)CCCC4)C1 (stereo not shown) [BN-7, 8-Methyl-1,2,3,4,7,8,9,10-octahydrobenzo[4,5]thieno[2,3-b]quinolin-11-amine] | 70.7 µg/mL (≈ 260 µM)
Nc1c2c(nc3sc4c(c13)CCC4)CCCC2 [BN-14, 2,3,6,7,8,9-Hexahydro-1H-cyclopenta[4,5]thieno[2,3-b]quinolin-10-amine] | 223 µg/mL (≈ 913 µM)
Nc1c2c(nc3sc4c(c13)CCC4)CCCCC2 [BN-16, 1,2,3,6,7,8,9,10-Octahydrocyclohepta[b]cyclopenta[4,5]thieno[3,2-e]pyridine-11-amine] | 123 µg/mL (≈ 476 µM)
Nc1c2c(nc3sc4c(c13)CCCCC4)CCC2 [BN-18, 1,2,3,6,7,8,9,10-Octahydrocyclohepta[4,5] thieno[2,3-b]cyclopenta [e]pyridin-11-amine] | 47.8 µg/mL (≈ 185 µM)

Same assay, conditions: MTT, 48 hrs

Structure (SMILES) | Colo-205 IC50
CC1CCc2c(nc3sc4c(c3c2N)CCC4)C1 (stereo not shown) [BN-15, 7-Methyl-2,3,6,7,8,9-hexahydro-1H-cyclopenta[4,5]thieno[2,3-b]quinolin-10-amine] | No activity
Nc1c2c(nc3sc4c(c13)CCC4)CCCCCC2 [BN-17, 2,3,6,7,8,9,10,11-Octahydro-1H-cycloocta [b]cyclopenta[4,5]thieno[3,2-e]pyridin-12-amine] | 61.65 µg/mL

The compounds below were run on A431 (Skin cancer) cell lines (assay: MTT assay, A431). Conditions: Homo sapiens, A-431; MTT, 48 hrs; read-out: A431 cell lines IC50.
Type: cell-based
Procedure: as §1, §2

Structure (SMILES) | IC50
Nc1c2c(nc3sc4c(c13)CCCC4)CCCC2 [BN-6, 1,2,3,4,7,8,9,10-Octahydrobenzo[4,5]thieno[2,3-b]quinolin-11-amine] | 36.3 µg/mL (≈ 140 µM)
CC1CCc2c(nc3sc4c(c3c2N)CCCC4)C1 (stereo not shown) [BN-7, 8-Methyl-1,2,3,4,7,8,9,10-octahydrobenzo[4,5]thieno[2,3-b]quinolin-11-amine] | 36.3 µg/mL (≈ 133 µM)
Nc1c2c(nc3sc4c(c13)CCC4)CCCC2 [BN-14, 2,3,6,7,8,9-Hexahydro-1H-cyclopenta[4,5]thieno[2,3-b]quinolin-10-amine] | 99.3 µg/mL (≈ 406 µM)
CC1CCc2c(nc3sc4c(c3c2N)CCC4)C1 (stereo not shown) [BN-15, 7-Methyl-2,3,6,7,8,9-hexahydro-1H-cyclopenta[4,5]thieno[2,3-b]quinolin-10-amine] | 40.7 µg/mL (≈ 158 µM)
Nc1c2c(nc3sc4c(c13)CCC4)CCCCC2 [BN-16, 1,2,3,6,7,8,9,10-Octahydrocyclohepta[b]cyclopenta[4,5]thieno[3,2-e]pyridine-11-amine] | 63 µg/mL (≈ 244 µM)
Nc1c2c(nc3sc4c(c13)CCCCC4)CCC2 [BN-18, 1,2,3,6,7,8,9,10-Octahydrocyclohepta[4,5] thieno[2,3-b]cyclopenta [e]pyridin-11-amine] | 53.7 µg/mL (≈ 208 µM)

Same assay, conditions: MTT, 48 hrs

Structure (SMILES) | A431 cell lines IC50
Nc1c2c(nc3sc4c(c13)CCC4)CCCCCC2 [BN-17, 2,3,6,7,8,9,10,11-Octahydro-1H-cycloocta [b]cyclopenta[4,5]thieno[3,2-e]pyridin-12-amine] | 32.35 µg/mL

Each compound was assayed against T1, porcine pancreatic α-amylase (Sus scrofa, UniProt P00690) (assay: α-Amylase inhibition assay). Conditions: 10 mg per ml.
T1 construct: α-amylase [EC 3.2.1.1) Type VI B: from porcine pancreas]; purchased Sigma Chemical Co., St Louis, Mo., USA; host or cells: porcine pancreas (natural source)
T1 sequence (P00690 16-511): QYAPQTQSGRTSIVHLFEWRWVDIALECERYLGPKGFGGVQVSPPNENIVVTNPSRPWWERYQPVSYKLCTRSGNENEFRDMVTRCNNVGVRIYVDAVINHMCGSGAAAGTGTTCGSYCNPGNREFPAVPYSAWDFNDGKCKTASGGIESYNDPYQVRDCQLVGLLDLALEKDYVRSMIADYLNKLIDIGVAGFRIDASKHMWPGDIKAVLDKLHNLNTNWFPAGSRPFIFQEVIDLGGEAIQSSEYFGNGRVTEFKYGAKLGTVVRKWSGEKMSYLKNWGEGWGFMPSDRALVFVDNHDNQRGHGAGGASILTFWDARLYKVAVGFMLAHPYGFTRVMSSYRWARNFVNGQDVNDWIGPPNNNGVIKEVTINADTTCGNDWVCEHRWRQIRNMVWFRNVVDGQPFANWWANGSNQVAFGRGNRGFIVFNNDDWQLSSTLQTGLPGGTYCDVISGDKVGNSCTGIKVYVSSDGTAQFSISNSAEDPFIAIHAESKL
Type: biochemical
From the text: Chemicals: α-Glucosidase [(EC 3.2.1.20) Type I: from bakers yeast], rat intestinal acetone powder (as a source of crude intestinal α-glucosidase), α-amylase [EC 3.2.1.1) Type VI B: from porcine pancreas], p-nitrophenyl α-D-glucopyranoside, 3,5-dinitro salicylic acid, soluble potato starch and 1-deoxyrojirimycine, were purchased from Sigma Chemical Co., St Louis, Mo., USA. Other chemicals of analytical grade were procured from indigenous manufacturers.
a-Amylase Inhibition Assay: The assay method was adopted from Ali et al. (2006) and modified accordingly to suite microplate reading. In brief, 40 μL of test samples (10 mg/mL DMSO) were reconstituted in 160 μL of 20 mM phosphate buffer (pH 6.9) containing 6.7 mM sodium chloride in 2 mL Eppendorf tubes and incubated with 200 μL of porcine pancreatic α-amylase) (4 U/mL prepared in ice cold distilled water) for 5 min. The reaction was started by the addition of 400-μL soluble potato starch solution (0.5% w/v in 20 mM phosphate buffer, pH 6.9). Exactly 3 min after incubation, 400 μL DNS color reagent (1.0 g of 3,5-dinitrosalicylic acid, 30 g of sodium potassium tartrate and 20 mL of 2 N NaOH to a final volume of 100 mL in distilled water) was added. Closed tubes were placed in a water bath (85-90° C.) for 10 min to develop color and cooled thereafter. 50 μL of reaction mixtures was diluted with 175 μL of distilled water in a 96-well microplate. α-Amylase activity was determined by measuring the absorbance of the mixture at 540 nm spectrophotometrically as above. Individual blanks were prepared to correct for the background absorbance due to test samples. In this case DNS solution was added in tubes before addition of substrate. The percentage inhibition of enzyme activity was calculated as above. All the tests were run in duplicate in this assay.

Structure (SMILES) | Alpha amylase inhibitory activity (in words)
Nc1c2c(nc3sc4c(c13)CCCC4)CCCC2 [BN-6, 1,2,3,4,7,8,9,10-Octahydrobenzo[4,5]thieno[2,3-b]quinolin-11-amine] | mild inhibition
CC1CCc2c(nc3sc4c(c3c2N)CCC4)C1 (stereo not shown) [BN-15, 7-Methyl-2,3,6,7,8,9-hexahydro-1H-cyclopenta[4,5]thieno[2,3-b]quinolin-10-amine] | strong inhibitory activity
Nc1c2c(nc3sc4c(c13)CCC4)CCCCC2 [BN-16, 1,2,3,6,7,8,9,10-Octahydrocyclohepta[b]cyclopenta[4,5]thieno[3,2-e]pyridine-11-amine] | mild inhibition
Nc1c2c(nc3sc4c(c13)CCC4)CCCCCC2 [BN-17, 2,3,6,7,8,9,10,11-Octahydro-1H-cycloocta [b]cyclopenta[4,5]thieno[3,2-e]pyridin-12-amine] | strong inhibitory activity

Same assay, conditions: 10 mg per ml; a/b marks the respective control (Control-1 2.147, Control-2 3.429)

Structure (SMILES) | Maltose released
Nc1c2c(nc3sc4c(c13)CCCC4)CCCC2 [BN-6, 1,2,3,4,7,8,9,10-Octahydrobenzo[4,5]thieno[2,3-b]quinolin-11-amine] | 2.548 mg/mL
CC1CCc2c(nc3sc4c(c3c2N)CCCC4)C1 (stereo not shown) [BN-7, 8-Methyl-1,2,3,4,7,8,9,10-octahydrobenzo[4,5]thieno[2,3-b]quinolin-11-amine] | 2.163 mg/mL
Nc1c2c(nc3sc4c(c13)CCC4)CCCC2 [BN-14, 2,3,6,7,8,9-Hexahydro-1H-cyclopenta[4,5]thieno[2,3-b]quinolin-10-amine] | 2.210 mg/mL
CC1CCc2c(nc3sc4c(c3c2N)CCC4)C1 (stereo not shown) [BN-15, 7-Methyl-2,3,6,7,8,9-hexahydro-1H-cyclopenta[4,5]thieno[2,3-b]quinolin-10-amine] | 1.179 mg/mL
Nc1c2c(nc3sc4c(c13)CCC4)CCCCC2 [BN-16, 1,2,3,6,7,8,9,10-Octahydrocyclohepta[b]cyclopenta[4,5]thieno[3,2-e]pyridine-11-amine] | 1.492 mg/mL
Nc1c2c(nc3sc4c(c13)CCC4)CCCCCC2 [BN-17, 2,3,6,7,8,9,10,11-Octahydro-1H-cycloocta [b]cyclopenta[4,5]thieno[3,2-e]pyridin-12-amine] | 1.028 mg/mL
Nc1c2c(nc3sc4c(c13)CCCCC4)CCC2 [BN-18, 1,2,3,6,7,8,9,10-Octahydrocyclohepta[4,5] thieno[2,3-b]cyclopenta [e]pyridin-11-amine] | 3.972 mg/mL

Same assay, conditions: 10 mg per ml; calculated from maltose released vs respective control

Structure (SMILES) | % Inhibition
Nc1c2c(nc3sc4c(c13)CCC4)CCCCCC2 [BN-17, 2,3,6,7,8,9,10,11-Octahydro-1H-cycloocta [b]cyclopenta[4,5]thieno[3,2-e]pyridin-12-amine] | 53.92%

Same assay, conditions: 0.05 h; 10 mg per ml; calculated from maltose released vs respective control

Structure (SMILES) | inhibition at 10000 µg/mL (stock)
Nc1c2c(nc3sc4c(c13)CCCC4)CCCC2 [BN-6, 1,2,3,4,7,8,9,10-Octahydrobenzo[4,5]thieno[2,3-b]quinolin-11-amine] | 26.2%
CC1CCc2c(nc3sc4c(c3c2N)CCCC4)C1 (stereo not shown) [BN-7, 8-Methyl-1,2,3,4,7,8,9,10-octahydrobenzo[4,5]thieno[2,3-b]quinolin-11-amine] | -0.765%
Nc1c2c(nc3sc4c(c13)CCC4)CCCC2 [BN-14, 2,3,6,7,8,9-Hexahydro-1H-cyclopenta[4,5]thieno[2,3-b]quinolin-10-amine] | -3.06%
CC1CCc2c(nc3sc4c(c3c2N)CCC4)C1 (stereo not shown) [BN-15, 7-Methyl-2,3,6,7,8,9-hexahydro-1H-cyclopenta[4,5]thieno[2,3-b]quinolin-10-amine] | 46.7%
Nc1c2c(nc3sc4c(c13)CCC4)CCCCC2 [BN-16, 1,2,3,6,7,8,9,10-Octahydrocyclohepta[b]cyclopenta[4,5]thieno[3,2-e]pyridine-11-amine] | 31.5%
Nc1c2c(nc3sc4c(c13)CCCCC4)CCC2 [BN-18, 1,2,3,6,7,8,9,10-Octahydrocyclohepta[4,5] thieno[2,3-b]cyclopenta [e]pyridin-11-amine] | -16.2%

Same assay, conditions: end of the reaction, vs control maltose release

Structure (SMILES) | Maltose release
Nc1c2c(nc3sc4c(c13)CCCCC4)CCC2 [BN-18, 1,2,3,6,7,8,9,10-Octahydrocyclohepta[4,5] thieno[2,3-b]cyclopenta [e]pyridin-11-amine] | more than control
